Results as given in article PMC11678824 (2024).

Columns and labels:
[1] = tested on: G4 Tel (DNA, G4) AGGGTTAGGGTTAGGGTTAGGG; assay: fluorescence titration (ligand emission); details: 100 mM K+ (KCl) plus potassium phosphate, 20 mM potassium phosphate, pH 6.8, ligand 2 µM, apparent
[2] = tested on: G4 Tel (DNA, G4) AGGGTTAGGGTTAGGGTTAGGG; assay: fluorescent intercalator displacement (FID); details: 100 mM K+ (KCl) plus potassium phosphate; 20 mM potassium phosphate, pH 6.8; thiazole orange 3.5 µM displaced; DNA 1 µM
[3] = tested on: ds26 (DNA, duplex) CAATCGGATCGAATTCGATCCGATTG; assay: fluorescence titration (ligand emission); details: 100 mM K+ (KCl) plus potassium phosphate, 20 mM potassium phosphate, pH 6.8, ligand 2 µM, apparent
[4] = tested on: MYC (DNA, G4) TGAGGGTGGGTAGGGTGGGTAA; assay: fluorescence titration (ligand emission); details: 100 mM K+ (KCl) plus potassium phosphate; 20 mM potassium phosphate, pH 6.8; ligand 2 µM; apparent; Hill n = 3.85
[5] = tested on: ds26 (DNA, duplex) CAATCGGATCGAATTCGATCCGATTG; assay: fluorescent intercalator displacement (FID); details: 100 mM K+ (KCl) plus potassium phosphate; 20 mM potassium phosphate, pH 6.8; thiazole orange 3.5 µM displaced; DNA 1 µM
[6] = tested on: KRAS (DNA, G4) AGGGCGGTGTGGGAATAGGGAA; assay: fluorescence titration (ligand emission); details: 100 mM K+ (KCl) plus potassium phosphate; 20 mM potassium phosphate, pH 6.8; ligand 2 µM; apparent; Hill n = 1.59
[7] = tested on: KRAS (DNA, G4) AGGGCGGTGTGGGAATAGGGAA; assay: fluorescent intercalator displacement (FID); details: 100 mM K+ (KCl) plus potassium phosphate; 20 mM potassium phosphate, pH 6.8; thiazole orange 3.5 µM displaced; DNA 1 µM
[8] = tested on: MYC (DNA, G4) TGAGGGTGGGTAGGGTGGGTAA; assay: fluorescent intercalator displacement (FID); details: 100 mM K+ (KCl) plus potassium phosphate; 20 mM potassium phosphate, pH 6.8; thiazole orange 3.5 µM displaced; DNA 1 µM
[9] = tested on: ds26 (DNA, duplex) CAATCGGATCGAATTCGATCCGATTG; assay: UV-Vis titration (Soret red shift, hypochromism); details: 100 mM K+ (KCl) plus potassium phosphate; 20 mM potassium phosphate, pH 6.8; ligand 2 µM; up to 2.5 equiv. DNA
[10] = tested on: KRAS (DNA, G4) AGGGCGGTGTGGGAATAGGGAA; assay: UV-Vis titration (Soret red shift, hypochromism); details: 100 mM K+ (KCl) plus potassium phosphate; 20 mM potassium phosphate, pH 6.8; ligand 2 µM; up to 2.5 equiv. DNA
[11] = tested on: G4 Tel (DNA, G4) AGGGTTAGGGTTAGGGTTAGGG; assay: UV-Vis titration (Soret red shift, hypochromism); details: 100 mM K+ (KCl) plus potassium phosphate; 20 mM potassium phosphate, pH 6.8; ligand 2 µM; up to 2.5 equiv. DNA
[12] = tested on: MYC (DNA, G4) TGAGGGTGGGTAGGGTGGGTAA; assay: UV-Vis titration (Soret red shift, hypochromism); details: 100 mM K+ (KCl) plus potassium phosphate; 20 mM potassium phosphate, pH 6.8; ligand 2 µM; up to 2.5 equiv. DNA

Structure (SMILES) | KD ([1]; Hill n = 1.35) | DC50 [2] | KD ([3]; Hill n = 0.67) | KD [4] | DC50 [5] | KD [6] | DC50 [7] | DC50 [8] | KD ([1]; Hill n = 1.0) | KD ([3]; Hill n = 0.49) | binding [9] | binding [10] | binding [11] | binding [12]
C[n+]1ccc(-c2c3nc(c(-c4cc[n+](C)cc4)c4ccc([n-]4)c(-c4cc[n+](C)cc4)c4nc(c(-c5cc[n+](C)cc5)c5ccc2[n-]5)C=C4)C=C3)cc1.[Zn+2] | 1300 ± 20 nM | 340 ± 20 nM | 2690 ± 20 nM | 1320 ± 130 nM | 650 ± 40 nM | 2720 ± 420 nM | 370 ± 10 nM | 200 ± 20 nM |  |  |  |  |  | 
C[n+]1ccc(-c2c3nc(c(-c4cc[n+](C)cc4)c4ccc([n-]4)c(-c4cc[n+](C)cc4)c4nc(c(-c5cc[n+](C)cc5)c5ccc2[n-]5)C=C4)C=C3)cc1.[Ag+2] |  | 1120 ± 270 nM |  |  | 2000 ± 370 nM |  | 280 ± 10 nM | 180 ± 30 nM | 630 ± 290 nM | 10 ± 7 nM |  |  |  | 
C[n+]1ccc(-c2c3nc(c(-c4cc[n+](C)cc4)c4ccc([nH]4)c(-c4cc[n+](C)cc4)c4nc(c(-c5cc[n+](C)cc5)c5ccc2[nH]5)C=C4)C=C3)cc1 |  |  |  |  |  |  |  |  |  |  | yes | yes | yes | yes
